Data published in the supplement of paper PMC9938120.

Legend:
Assay in all cases: drug sensitivity score (DSS3, normalised partial AUC of % inhibition dose-response) (DSS (score)); higher = more sensitive (stronger inhibition of viability); extreme values may be limits of the assay
[1] = system: FMOC28 (patient-derived low-grade serous ovarian cancer cells); conditions: 72 h; library: FO5A; assay format: 2D, 384-well, CellTiter-Glo
How it was run: (§1)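 Early-passage (under 10) patient-derived ovarian cancer cells were dispensed onto 384-well flat clear-bottom plates pre-plated with compounds at five concentrations spanning a 10,000-fold range, then incubated 72 h at 37 °C, 5% CO2. Viability was read with CellTiter-Glo, and the data were processed in Breeze. The drug sensitivity score is a partial area under the percent-inhibition dose-response curve divided by the log of the upper asymptote, with higher values meaning greater sensitivity.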

[2] = system: FMOC06 (patient-derived mucinous ovarian cancer cells); conditions: 72 h; library: FO5A; assay format: 2D, 384-well, CellTiter-Glo
How it was run: as §1

[3] = system: FMOC22 (patient-derived mucinous ovarian cancer cells); conditions: 72 h; library: FO5A; assay format: 2D, 384-well, CellTiter-Glo
How it was run: as §1

[4] = system: FMOC24 (patient-derived high-grade serous ovarian cancer cells); conditions: 72 h; library: FO5A; assay format: 2D, 384-well, CellTiter-Glo
How it was run: as §1

[5] = system: FMOC25_2 (patient-derived low-grade serous ovarian cancer cells); conditions: 72 h; library: FO5A; assay format: 2D, 384-well, CellTiter-Glo
How it was run: as §1

[6] = system: FMOC02_3 (patient-derived low-grade serous ovarian cancer cells); conditions: 72 h; library: FO5A; assay format: 2D, 384-well, CellTiter-Glo
How it was run: as §1

[7] = system: FMOC17 (patient-derived low-grade serous ovarian cancer cells); conditions: 72 h; library: FO5A; assay format: 2D, 384-well, CellTiter-Glo
How it was run: as §1

[8] = system: FMOC25_1 (patient-derived low-grade serous ovarian cancer cells); conditions: 72 h; library: FO4B; assay format: 2D, 384-well, CellTiter-Glo
How it was run: as §1

[9] = system: FMOC03 (patient-derived mucinous ovarian cancer cells); conditions: 72 h; library: FO5A; assay format: 2D, 384-well, CellTiter-Glo
How it was run: as §1

[10] = system: FMOC14 (patient-derived high-grade serous ovarian cancer cells); conditions: 72 h; library: FO5A; assay format: 2D, 384-well, CellTiter-Glo
How it was run: as §1

[11] = system: FMOC02_2 (patient-derived low-grade serous ovarian cancer cells); conditions: 72 h; library: FO5A; assay format: 2D, 384-well, CellTiter-Glo
How it was run: as §1

[12] = system: FMOC27 (patient-derived low-grade serous ovarian cancer cells); conditions: 72 h; library: FO5A; assay format: 2D, 384-well, CellTiter-Glo
How it was run: as §1

[13] = system: FMOC02_1 (patient-derived low-grade serous ovarian cancer cells); conditions: 72 h; library: FO5A; assay format: 2D, 384-well, CellTiter-Glo
How it was run: as §1

[14] = system: FMOC09 (patient-derived high-grade serous ovarian cancer cells); conditions: 72 h; library: FO5A; assay format: 2D, 384-well, CellTiter-Glo
How it was run: as §1

[15] = system: FMOC04 (patient-derived high-grade serous ovarian cancer cells); conditions: 72 h; library: FO5A; assay format: 2D, 384-well, CellTiter-Glo
How it was run: as §1

[16] = system: FMOC11 (patient-derived high-grade serous ovarian cancer cells); conditions: 72 h; library: FO5A; assay format: 2D, 384-well, CellTiter-Glo
How it was run: as §1

Compound	drug sensitivity score [1]	drug sensitivity score [2]	drug sensitivity score [3]	drug sensitivity score [4]	drug sensitivity score [5]	drug sensitivity score [6]	drug sensitivity score [7]	drug sensitivity score [8]	drug sensitivity score [9]	drug sensitivity score [10]	drug sensitivity score [11]	drug sensitivity score [12]	drug sensitivity score [13]	drug sensitivity score [14]	drug sensitivity score [15]	drug sensitivity score [16]
C=CC[C@@H]1/C=C(\C)C[C@H](C)C[C@H](OC)[C@H]2O[C@@](O)(C(=O)C(=O)N3CCCC[C@H]3C(=O)O[C@H](/C(C)=C/[C@@H]3CC[C@@H](O)[C@H](OC)C3)[C@H](C)[C@@H](O)CC1=O)[C@H](C)C[C@@H]2OC [Tacrolimus]	0.8	0	0.1	5	0	1.9	0.9	0	0	1.4	1.9	1.7	0.4	0	0	1.4
Nc1cccc2c1C(=O)N(C1CCC(=O)NC1=O)C2=O (centres undefined) [Pomalidomide]	0	0	0	0	0	0	0	0	0	0	0	0	0	0	0	0
Clc1ccc(Nc2nnc(Cc3ccncc3)c3ccccc23)cc1 [Vatalanib]	3	0	0	2.8	0.7	0	0	0	0.2	0	0.9	0	0.2	0	0	0
Cc1ccc(-c2cc(C(F)(F)F)nn2-c2ccc(S(N)(=O)=O)cc2)cc1 [Celecoxib]	0.3	0	0	0	0	0	0	0	0	0	0	0	0	0	0	0
COc1cccc2c1c(O)c(C(=O)N(C)c1ccc(C(F)(F)F)cc1)c(=O)n2C [Tasquinimod]	0	0	0	2.3	2.5	1	0	3.9	0	0	0	0.4	0	0	0	0
CCC(C)n1ncn(-c2ccc(N3CCN(c4ccc(OCC5COC(Cn6cncn6)(c6ccc(Cl)cc6Cl)O5)cc4)CC3)cc2)c1=O (centres undefined) [Itraconazole]	4.4	0.7	0.2	4.9	4.6	6.6	4.8	4	4.5	1.3	3	0.6	5.3	0.8	0.1	1.2
Cc1cnc(NC(=O)Nc2cc(Br)c(C)cc2OC[C@@H]2CNCCO2)cn1 [Rabusertib]	0	0.2	0	3.6	2	0.8	1.1	1	0	3.8	0	0	2.2	0	1.7	2
C=C1C[C@@H]2[C@H](CC[C@]3(C)C(=O)CC[C@@H]23)[C@@]2(C)C=CC(=O)C=C12 [Exemestane]	0	0.4	0	0.35	0	0	0	0	0	0	0	0	0	0	0	0
CNCc1ccc(-c2[nH]c3cc(F)cc4c3c2CCNC4=O)cc1 [Rucaparib]	1.9	0	0	12.9	2.4	3.1	3.6	0.5	0	0.3	2.1	1.7	2.1	0	0	0
c1cc(CN2CCCNCCNCCCNCC2)ccc1CN1CCCNCCNCCCNCC1 [Plerixafor]	0	0	0	0	0	0	0	0	0	0	0	0	0	0	0	0
FC(F)(F)c1ccc(CNc2ccc(Cc3c[nH]c4ncc(Cl)cc34)cn2)cn1 [Pexidartinib]	0.1	0.9	0.3	1.3	0	3.1	1.4	1.6	0	0	2.5	0	3.9	4.1	0.1	2.6
O=C(Nc1nc2cccc(-c3ccc(CN4CCS(=O)(=O)CC4)cc3)n2n1)C1CC1 [Filgotinib]	5.2	1.3	0	3.1	3.9	6.1	3.3	1.9	0	0	2.9	5	2.6	0.4	0	0
CN(C)CCOc1ccc(/C(=C(/CCCl)c2ccccc2)c2ccccc2)cc1 [Toremifene]	2.4	7.4	5.3	7	2.2	7.1	3.3	2.2	5.3	5.2	5.3	1.9	6	3.8	4	4.3
Cc1ncc(Cl)cc1NCc1ccc(C(=O)N[C@@H](CC2CCCC2)C(=O)NC2CC2)s1	0	0.2	0.1	2.05	0	7.1	0	0	0	0	0	1.5	0	0	0	0
COc1nc(N)nc2c1ncn2[C@@H]1O[C@H](CO)[C@@H](O)[C@@H]1O [Nelarabine]	0	1.7	0	1.75	0	0	0	0	0	0	0	0	0	0	0	0
CCNc1nc(Nc2cc(F)c(C(=O)N3CCOCC3)cc2OC)ncc1C(F)(F)F [GNE-7915]	2	0	0	0	0	1	0	0	0	0	0	0	0	0	0	0
Nc1ncn([C@H]2C[C@H](O)[C@@H](CO)O2)c(=O)n1 [Decitabine]	0	0.4	0.1	7.4	1.5	0.6	0.9	0	0	0	1.4	7.5	0.3	0	0	5.3
Nc1cccc2c1CN(C1CCC(=O)NC1=O)C2=O (centres undefined) [Lenalidomide]	0	0.1	0	0.6	0	2.4	0	0	0	0	0	0	0	0	0	0
FC(F)(F)c1ccc(/C=C/c2nc(COc3ccc(CCCCn4ccnn4)cc3)co2)cc1 [Mubritinib]	0	0.6	3	0	1.1	0	0	0.1	3.9	0.7	0	1.7	0	0	0	0.6
Cc1cccc(CC(=O)N2CCc3c2ccc(-c2cn(C)c4ncnc(N)c24)c3F)n1	0	0	0.2	0	1.6	0	0	0.2	0	0	0	0	0	0	0	0
Clc1ccc(C(c2ccccc2Cl)C(Cl)Cl)cc1 (centres undefined) [Mitotane]	0	0	0	0	0	0	0	0	0	0	0	0	0	0	0	0
S=C(NCc1ccc2c(c1)OCO2)N1CCN(c2ncnc3c2oc2ccccc23)CC1 [Amuvatinib]	0	0.8	2.2	0	0	0	0.3	0	2.6	2	0	0	0.4	0	0.3	0.7
CN(C)C(=O)c1ccc(S(=O)(=O)c2ccc(NC(=O)[C@@](C)(O)C(F)(F)F)c(Cl)c2)cc1 [AZD7545]	2.4	0	0.8	0	0	0	0	0	0	0.4	0	0	0	0	0	0
NC(=O)NO [Hydroxyurea]	0.9	1.9	0.7	1.05	3.9	4.8	1.1	0.5	0.7	0	1.3	1.6	5.2	0.9	0.8	2.9
